Data from publication PMC6929626, “PET/MRI enables simultaneous in vivo quantification of β-cell mass and function” (Theranostics, 2020).

What was measured:
[1] = system: isolated pancreatic islets; test: Glucose-dependent insulin secretion of isolated islets after in vivo MnCl2:Bicine (radioimmunoassay); set-up: species or system mice
Protocol: The chronic exposure to high concentrations of Mn can potentially lead to cytotoxic effects on heart, liver and brain [26]. We hypothesized that the early and late retention of Mn might impair the physiological integrity of the glucose-dependent insulin response of islet cells. To investigate the physiological function of the islets, glucose-dependent insulin secretion was measured in vitro 1 or 24 h after a single systemic in vivo administration of MnCl2:Bicine solution (75 µmol/kg) on a new group of mice (Table. 1, Group 4). Secretion assays were performed on isolated islets, followed by quantification of insulin content using radioimmunoassay. The response to glucose of each individual mouse was assessed by calculating the enhancement of insulin secretion between basal (3 mM) and stimulating glucose concentration (15 mM).
Before the isolation of islets, control and RIP1-Tag2 mice previously anesthetized using 1-2% isoflurane/O2 gas mixture (Vetland, Louisville, KY, USA) and intravenously injected with a bolus of MnCl2:Bicine solution (75 µmol/kg), analogously to the in vivo imaging protocol. […] The content of insulin in the supernatant was determined by radioimmunoassay using as insulin standards Millipore 8013-K (Merck, Darmstadt, DE). […]

[2] = LA-ICP-MS imaging of ^55Mn in pancreas sections, cross-validated with autoradiography; format: in vivo, mice
Protocol: The whole pancreata from control and transgenic RIP1-Tag2 mice were isolated after cervical dislocation under anesthesia. Then, the whole pancreata were embedded in O.C.T. (optimum cutting temperature) embedding compound (Sakura, Zoeterwonde, NL) and snap frozen at -20 °C. Subsequently, serial 20 µm cryosections were obtained using a Cryostat (Leica 1850, Leica GmbH, Wetzlar, DE) and exposed to a 35×43 cm Storage Phosphor Screen (445SI, Molecular Dynamics, Sunnyvale, CA, USA) at room temperature for 24 h and 48 h for animals sacrificed at 1 h and 24 h, respectively. Scanning of the phosphor imaging plate was performed using a Storm 840 scanner (STORM 840, Amersham Biosciences, Amersham, UK) with a spatial resolution of 50x50 µm^2 and analyzed using ImageJ software (US NIH, Bethesda, Maryland, USA). Thus, we calculated the main effect of the PET tracer uptake, expressed as islet-to-exocrine ratio to estimate the islet diameter identified as single spots throughout the pancreas sections in both groups (Fig. S3).
The autoradiography slides were scanned line-by-line at 60 µm laser spot size using an NWR 213 laser ablation system (New Wave Research, Fremont, CA, USA). […] The isotopes ^44Ca, ^65Cu, ^64Zn,^ 55Mn, ^13C were monitored among the exocrine and the endocrine tissue in the healthy and insulinoma mice. […]

MnCl2:Bicine
effect of contrast agent accumulation on glucose-dependent insulin secretion response ([1]; islets isolated 1 h and 24 h after single i.v. 75 µmol/kg, 8-wk old control and RIP1-Tag2 mice): not affected | enhancement of insulin secretion, stimulating (15 mM) vs basal (3 mM) glucose ([1]; islets of 8-wk old control and RIP1-Tag2 mice isolated 1 or 24 h after single i.v. 75 µmol/kg, radioimmunoassay, n=3/3): 10-20 times | spatial distribution of exogenous ^55Mn in pancreas sections ([2]; 1 h after injection, merged elemental images of ^55Mn, ^44Ca, ^64Zn, control and 13-wk RIP1-Tag2 mice): higher concentration of ^55Mn in the exocrine pancreas | spatial distribution of exogenous ^55Mn in pancreas sections ([2]; 24 h after injection, control and RIP1-Tag2 mice): only low levels of ^55Mn were found in the exocrine pancreas
